In patent publication US20200230247A1, “COMBINATION THERAPIES COMPRISING TARGETED THERAPEUTICS” (TARVEDA THERAPEUTICS, INC., priority 2017, published 2020):

Tested on: NCI-H69 (small cell lung cancer) tumors
Assay: Antitumor efficacy in mice bearing NCI-H69 tumors
Format: in vivo
Settings: Conjugate 1 12.5 mpk once per week IV, Talazoparib 0.33 mpk PO daily 4 days on/three days off, combo: Talazoparib starting 24 hrs post Conjugate 1 dose, tumor volumes measured up to 16 days after treatment
Description: Mice bearing NCI-H69 (small cell lung cancer) tumors were treated with the following.
1). Vehicle controls; 2). 12.5 mpk (mg per kilogram) of Conjugate 1 once per week via intravenous administration (IV); 3). 0.33 mpk Talazoparib daily for 4 days on/three days off via oral administration (PO); 4). 12.5 mpk Conjugate 1 once per week via IV, and 0.33 mpk Talazoparib daily for 4 days on/three days off starting 24 hrs post Conjugate 1 dose.
Tumor volumes were measured 3 days, 8 days, 10 days, 13 days and 16 days after treatment.

| Compound | Tumor Growth Inhibition (TGI %) |
| --- | --- |
| CCc1c2c(nc3ccc(OC(=O)N4CCC(CCn5ccc6cc(-n7c(O)nnc7-c7cc(C(C)C)c(O)cc7O)ccc65)CC4)cc13)-c1cc3c(c(=O)n1C2)COC(=O)[C@]3(O)CC [Conjugate 1, (S)-4,11-diethyl-4-hydroxy-3,14-dioxo-3,4,12,14-tetrahydro-1H-pyrano[3′,4′:6,7]indolizino[1,2-b]quinolin-9-yl 4-(2-(5-(3-(2,4-dihydroxy-5-isopropylphenyl)-5-hydroxy-4H-1,2,4-triazol-4-yl)-1H-indol-1-yl)ethyl)piperidine-1-carboxylate] | 50.67% |
| Cn1ncnc1[C@H]1c2n[nH]c(=O)c3cc(F)cc(c23)N[C@@H]1c1ccc(F)cc1 [Talazoparib, talazoparib] | 15.66% |
